Eleven molecules from ChEMBL document CHEMBL4619774 (J Med Chem, 2020) can be followed below.

The term IC50 denotes the concentration at which inhibition is half-maximal.

In test [1] the target is T1, Coagulation factor XI (Homo sapiens, UniProt P03951). Description: Inhibition of human F11a using D-Leu-Pro-Arg*Rh110-D-Pro as substrate preincubated for 60 mins followed by substrate addition and measured after 60 mins by fluorescence assay.
Test [2] addresses Plasma kallikrein (Homo sapiens, UniProt P03952). The class given is single protein.
The target of test [3] is Complement factor D (Homo sapiens, UniProt P00746). The class given is single protein.
Complement factor D, sequence (P00746 whole entry, the tested form may be a part): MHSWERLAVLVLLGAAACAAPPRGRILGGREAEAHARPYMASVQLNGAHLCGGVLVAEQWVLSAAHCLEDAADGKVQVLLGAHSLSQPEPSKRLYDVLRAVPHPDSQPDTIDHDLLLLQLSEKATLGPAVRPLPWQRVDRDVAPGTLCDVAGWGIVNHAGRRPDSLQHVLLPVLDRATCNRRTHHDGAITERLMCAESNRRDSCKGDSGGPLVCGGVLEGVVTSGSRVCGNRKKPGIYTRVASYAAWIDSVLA
Test [4] has as its target T1, Coagulation factor XI. The test can be described thus: Inhibition of […] human plasma F11a catalytic domain expressed in Escherichia coli strain BL21(DE3) using D-Leu-Pro-Arg*Rh110-D-Pro as substrate preincubated for 60 mins followed by substrate addition and measured after 60 mins by fluorescence assay.
Test [5] has as its target T2, Coagulation factor VII (Homo sapiens, UniProt P08709).
T2 sequence (P08709 whole entry): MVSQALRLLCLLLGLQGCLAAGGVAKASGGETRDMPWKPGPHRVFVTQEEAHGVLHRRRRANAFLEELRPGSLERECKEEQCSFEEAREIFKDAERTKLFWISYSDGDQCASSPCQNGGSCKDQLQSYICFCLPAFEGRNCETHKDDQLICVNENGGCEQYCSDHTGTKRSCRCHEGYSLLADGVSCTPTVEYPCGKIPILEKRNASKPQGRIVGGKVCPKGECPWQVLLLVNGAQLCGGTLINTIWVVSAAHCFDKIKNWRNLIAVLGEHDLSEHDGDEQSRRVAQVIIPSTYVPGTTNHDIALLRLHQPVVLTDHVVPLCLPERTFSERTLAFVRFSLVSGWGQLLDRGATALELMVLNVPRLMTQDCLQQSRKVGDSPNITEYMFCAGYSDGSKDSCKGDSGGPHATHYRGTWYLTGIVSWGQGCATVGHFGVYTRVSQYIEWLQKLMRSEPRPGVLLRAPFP
The class given is single protein.

For test [6], the target named is Coagulation factor IX (Homo sapiens, UniProt P00740). The class given is single protein.
Coagulation factor IX, sequence (P00740 47-191 limits assumed): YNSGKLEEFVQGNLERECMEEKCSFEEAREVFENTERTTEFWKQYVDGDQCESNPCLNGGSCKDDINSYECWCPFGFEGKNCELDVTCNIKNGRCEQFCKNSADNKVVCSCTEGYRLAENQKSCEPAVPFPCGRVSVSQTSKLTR
Coagulation factor IX, sequence (P00740 227-461 limits assumed): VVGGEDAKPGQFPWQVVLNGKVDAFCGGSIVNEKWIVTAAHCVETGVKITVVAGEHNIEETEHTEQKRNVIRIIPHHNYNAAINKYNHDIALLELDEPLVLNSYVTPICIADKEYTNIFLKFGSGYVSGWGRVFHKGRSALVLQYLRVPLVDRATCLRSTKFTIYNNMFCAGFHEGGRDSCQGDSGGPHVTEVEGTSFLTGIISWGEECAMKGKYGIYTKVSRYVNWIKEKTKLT
Test [7] concerns the target Coagulation factor X (Homo sapiens, UniProt P00742). The class given is single protein.
For test [8], the target named is Prothrombin (Homo sapiens, UniProt P00734). The class given is single protein.
Test [9] addresses Tissue-type plasminogen activator (Homo sapiens, UniProt P00750). The class given is single protein.
The target of test [10] is Plasminogen (Homo sapiens, UniProt P00747). The class given is single protein.
Plasminogen, sequence (P00747 97-580 limits assumed): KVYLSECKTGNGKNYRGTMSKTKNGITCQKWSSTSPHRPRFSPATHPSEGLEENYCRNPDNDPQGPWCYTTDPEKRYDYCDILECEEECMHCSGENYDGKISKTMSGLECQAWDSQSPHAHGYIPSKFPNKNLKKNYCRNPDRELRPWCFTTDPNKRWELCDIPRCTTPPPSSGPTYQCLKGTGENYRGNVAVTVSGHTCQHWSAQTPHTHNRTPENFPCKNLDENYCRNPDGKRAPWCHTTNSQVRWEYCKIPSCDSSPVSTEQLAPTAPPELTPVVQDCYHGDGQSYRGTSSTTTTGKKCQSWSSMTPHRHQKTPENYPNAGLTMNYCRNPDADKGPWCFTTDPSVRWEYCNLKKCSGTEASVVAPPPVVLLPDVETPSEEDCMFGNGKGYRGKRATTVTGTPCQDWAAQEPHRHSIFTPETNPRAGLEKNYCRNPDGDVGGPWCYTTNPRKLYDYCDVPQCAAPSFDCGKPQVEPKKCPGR
Plasminogen, sequence (P00747 581-810 limits assumed): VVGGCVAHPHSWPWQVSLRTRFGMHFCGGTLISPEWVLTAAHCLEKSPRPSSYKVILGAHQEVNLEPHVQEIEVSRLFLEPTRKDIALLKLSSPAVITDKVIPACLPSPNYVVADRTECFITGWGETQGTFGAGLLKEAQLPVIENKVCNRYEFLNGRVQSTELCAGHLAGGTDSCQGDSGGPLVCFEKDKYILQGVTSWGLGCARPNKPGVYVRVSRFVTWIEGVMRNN
The target of test [11] is Urokinase-type plasminogen activator (Homo sapiens, UniProt P00749). The class given is single protein.

Molecules are shown by their SMILES.

Plasma kallikrein, sequence (P03952 20-390 limits assumed): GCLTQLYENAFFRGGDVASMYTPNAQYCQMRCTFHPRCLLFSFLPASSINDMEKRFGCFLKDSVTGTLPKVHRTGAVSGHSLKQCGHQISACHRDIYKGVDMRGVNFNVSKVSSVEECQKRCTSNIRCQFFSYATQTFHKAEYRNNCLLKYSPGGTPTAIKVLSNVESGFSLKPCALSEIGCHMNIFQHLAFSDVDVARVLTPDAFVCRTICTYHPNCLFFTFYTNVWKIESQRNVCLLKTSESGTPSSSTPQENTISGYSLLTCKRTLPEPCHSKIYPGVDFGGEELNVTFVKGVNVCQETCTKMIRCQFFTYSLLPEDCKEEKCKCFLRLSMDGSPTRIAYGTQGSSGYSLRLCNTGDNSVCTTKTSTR
Plasma kallikrein, sequence (P03952 391-638 limits assumed): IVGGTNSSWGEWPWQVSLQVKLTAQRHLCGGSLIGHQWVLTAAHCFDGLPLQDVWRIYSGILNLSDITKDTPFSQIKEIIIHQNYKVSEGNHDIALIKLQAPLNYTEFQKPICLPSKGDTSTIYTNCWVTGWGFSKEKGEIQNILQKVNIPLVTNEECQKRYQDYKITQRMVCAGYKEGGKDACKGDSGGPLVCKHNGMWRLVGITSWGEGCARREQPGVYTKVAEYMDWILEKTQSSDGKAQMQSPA
Coagulation factor X, sequence (P00742 41-179 limits assumed): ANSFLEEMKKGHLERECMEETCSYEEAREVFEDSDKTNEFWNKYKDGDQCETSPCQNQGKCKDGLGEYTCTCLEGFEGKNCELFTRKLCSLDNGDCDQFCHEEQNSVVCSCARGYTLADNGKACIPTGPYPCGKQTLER
Coagulation factor X, sequence (P00742 235-488 limits assumed): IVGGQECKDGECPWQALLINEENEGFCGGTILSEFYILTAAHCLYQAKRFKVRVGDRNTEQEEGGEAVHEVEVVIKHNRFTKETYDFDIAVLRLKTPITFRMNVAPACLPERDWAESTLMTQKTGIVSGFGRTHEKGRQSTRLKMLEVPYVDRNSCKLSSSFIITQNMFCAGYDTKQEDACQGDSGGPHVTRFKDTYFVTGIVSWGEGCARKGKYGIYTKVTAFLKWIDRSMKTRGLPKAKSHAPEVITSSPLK
T1 sequence (P03951 19-387 limits assumed): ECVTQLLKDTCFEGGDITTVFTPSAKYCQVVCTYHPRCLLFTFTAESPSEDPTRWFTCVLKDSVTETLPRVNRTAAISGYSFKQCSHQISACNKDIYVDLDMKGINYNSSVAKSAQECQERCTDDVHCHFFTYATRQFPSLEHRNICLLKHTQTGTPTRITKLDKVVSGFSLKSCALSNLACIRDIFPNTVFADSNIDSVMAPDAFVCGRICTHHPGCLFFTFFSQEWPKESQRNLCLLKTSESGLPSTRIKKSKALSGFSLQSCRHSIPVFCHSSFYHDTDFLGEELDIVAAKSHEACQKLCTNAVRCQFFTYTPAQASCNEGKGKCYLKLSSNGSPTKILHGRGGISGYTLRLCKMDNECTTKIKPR
T1 sequence (P03951 388-625 limits assumed): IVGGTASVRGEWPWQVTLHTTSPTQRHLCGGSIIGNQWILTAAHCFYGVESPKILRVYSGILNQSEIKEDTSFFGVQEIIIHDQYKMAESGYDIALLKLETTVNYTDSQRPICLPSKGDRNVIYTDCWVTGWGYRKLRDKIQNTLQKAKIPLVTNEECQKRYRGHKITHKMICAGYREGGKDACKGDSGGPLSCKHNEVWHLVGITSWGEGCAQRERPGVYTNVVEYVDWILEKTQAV
Tissue-type plasminogen activator, sequence (P00750 whole entry): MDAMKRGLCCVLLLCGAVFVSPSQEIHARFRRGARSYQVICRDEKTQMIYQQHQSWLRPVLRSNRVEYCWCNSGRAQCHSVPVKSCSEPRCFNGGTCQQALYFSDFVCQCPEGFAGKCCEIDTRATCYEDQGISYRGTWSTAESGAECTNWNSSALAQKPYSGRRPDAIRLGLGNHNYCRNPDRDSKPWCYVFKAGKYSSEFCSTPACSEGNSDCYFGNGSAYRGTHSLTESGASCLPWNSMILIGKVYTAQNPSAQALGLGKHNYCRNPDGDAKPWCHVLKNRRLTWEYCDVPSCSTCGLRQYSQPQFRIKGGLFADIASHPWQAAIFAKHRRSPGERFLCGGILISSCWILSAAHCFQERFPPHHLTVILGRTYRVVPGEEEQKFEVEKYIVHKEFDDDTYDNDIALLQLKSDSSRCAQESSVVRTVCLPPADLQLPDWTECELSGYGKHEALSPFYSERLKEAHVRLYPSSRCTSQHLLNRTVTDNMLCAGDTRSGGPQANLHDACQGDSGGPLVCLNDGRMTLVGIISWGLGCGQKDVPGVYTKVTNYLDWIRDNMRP

On to `NC1COc2ccc(C(=O)N3C[C@@H](c4ccccc4)C[C@H]3C(=O)Nc3cccc(Cl)c3)cc21` (mixture of isomers), for which the figures for the IC50 in test [1] and in [2] were 970 nM and 1200 nM, respectively.

With `CC(C)c1cc(-c2ccc3c(c2)[C@H](N)CO3)cc(C(O)Cn2ccc3cccc(C(=O)O)c32)c1` (mixture of isomers), the IC50 in test [1] is less than 0.7 nM; in [3], 8920 nM; in test [2] it was 16 nM; in test [4], 45 nM; in test [5] it was 16700 nM; in test [6] it was 13400 nM. Further, the IC50 in [7] was 11200 nM; in test [8], 7210 nM; in test [9] it was 3700 nM; in test [10] it was 17400 nM; in test [11] it was 1420 nM.

As to `CC(C)c1cc(CCNc2ccccc2C(=O)O)cc(-c2ccc3c(c2)[C@H](N)CO3)c1`, inhibition in test [1] was half-maximal at 2520 nM (IC50).

Consider `O=C(O)Cc1ccccc1OCc1cccc(-c2ccc3c(c2)CNCC3)c1`, for which the IC50 in test [1] came to 400 nM; in [3] it was 800 nM.

`COc1cccc(C(=O)O)c1OCCc1cc(-c2ccc3c(c2)[C@H](N)CO3)cc(C(C)C)c1`: the IC50 is 3 nM in test [1]; 17500 nM in test [3]; 9 nM in test [2]; 240 nM in test [4]; 28300 nM in test [5]; 10200 nM in test [6]. Moreover, the IC50 was 6210 nM in test [7]; 9090 nM in [8]; 2200 nM in test [9]; 30800 nM in test [10]; 400 nM in test [11].

With `NC1COc2ccc(-c3cccc(COc4ccccc4CC(=O)O)c3)cc21` (racemic), the half-maximal inhibitory concentration (IC50) in test [1] is 200 nM; in [3] it was 340 nM; in test [2], 1300 nM.

Turning to `COc1cccc(C(=O)O)c1OCC(O)c1cc(-c2ccc3c(c2)[C@H](N)CO3)cc(C(C)C)c1` (mixture of isomers), the IC50 was found to be 40 nM in test [1]; 27200 nM in [3]; 160 nM in test [2]; 8110 nM in test [4]; 12500 nM in test [5]; 15500 nM in test [6]. For the same molecule, the IC50 was determined as 16300 nM in test [7]; 7430 nM in [8]; 6680 nM in test [9]; 46200 nM in [10]; 1130 nM in [11].

As for `CC(C)(O)c1cc(COc2ccccc2CC(=O)O)cc(-c2ccc3c(c2)CNCC3)c1`, the IC50 is 100 nM in test [1], 230 nM in [3], 330 nM in [2] and 430 nM in test [4].

For the molecule `CC(C)c1cc(CCOc2ccccc2C(=O)O)cc(-c2ccc3c(c2)[C@H](N)CO3)c1`, the IC50 in test [1] was 12 nM; in [3], 1320 nM; in [2] it was 25 nM; in test [4] it was 1190 nM; in [5] it was 3270 nM; in test [6] it was 40 nM. The half-maximal inhibitory concentration (IC50) in [7] worked out at 240 nM; in [8] it was 50 nM; in test [9], 90 nM; in [10], 590 nM; in test [11] it was 20 nM.

As for `CC(C)c1cc(CCOc2c(Cl)cccc2C(=O)O)cc(-c2ccc3c(c2)[C@H](N)CO3)c1`, the IC50 in [1] was found to be 15 nM; in test [3], 34200 nM; in test [2], 21 nM; in test [4], 5490 nM; in test [5] it was 20500 nM; in [6], 9600 nM. For the same molecule, the IC50 in test [7] is 11100 nM; in test [8] it was 6220 nM; in [9], 3670 nM; in [10], 34000 nM; in test [11], 930 nM.

On to `Cc1cccc(C(=O)O)c1OCCc1cc(-c2ccc3c(c2)[C@H](N)CO3)cc(C(C)C)c1`, for which the IC50 in test [1] is 17 nM; in test [3] it was greater than 100000 nM; in test [2], 41 nM; in [4], 6620 nM; in test [5] it was 45100 nM; in [6], 11300 nM. For the same molecule, the IC50 was 12500 nM in test [7]; 9820 nM in test [8]; 4130 nM in [9]; greater than 100000 nM in test [10]; 2480 nM in test [11].
